The text below walks through data of patent publication US11174250B2, “Substituted carboxamides as inhibitors of WDR5 protein-protein binding” (PROPELLON THERAPEUTICS INC., priority 2016, dated 2021).

The assay addresses WDR5 protein (Homo sapiens (Human), UniProt P61964). The assay can be described thus: Surface Plasmon Resonance (SPR) assay. In kind it is binding. The conditions noted are these: for residence time: τ=1/koff, read-out: Residence Time (t, min).
[1] abbreviates: SPR, Table 1, read-out: WDR5 binding affinity (KD).
[2] abbreviates: SPR, Table 2, read-out: WDR5 binding affinity SPR (KD).

Each structure is given as a SMILES string. Read-outs that look alike come from different tables or passages of the source.

Consider `CN1CCN(c2ccc(-c3ccccc3F)cc2NC(=O)c2c[nH]c(=O)cc2C(F)(F)F)CC1` [Example 25, N-(2′-fluoro-4-(4-methylpiperazin-1-yl)-[1,1′-biphenyl]-3-yl)-6-oxo-4-(trifluoromethyl)-1,6-dihydropyridine-3-carboxamide], for which the Kd (as a rule, a measure of binding affinity in units of concentration) runs as follows: under setting [1], 102 nM; under setting [2], 102 nM. The residence time (in general, the mean lifetime of the complex, commonly the reciprocal of the off-rate) (SPR) amounted to 0.94 min.
On to `Cc1cc(C(=O)Nc2cc(-c3ccc(OC4CCOCC4)nc3F)ccc2N2CCN(C)CC2)cc(C)c1F` [Example 19, 4-fluoro-N-(5-(2-fluoro-6-((tetrahydro-2H-pyran-4-yl)oxy)pyridin-3-yl)-2-(4-methylpiperazin-1-yl)phenyl)-3,5-dimethylbenzamide], for which the Kd is, setting by setting: under setting [1], 71 nM; under setting [2], 71 nM. For the same compound, the residence time (SPR) was 1.44 min.
Take `CN(C)C1CCN(c2ccc(-c3cc(CN4CCOCC4)ccc3F)cc2NC(=O)c2cn(C)c(=O)cc2C(F)(F)F)C1` (stereo not drawn) [Example 101, N-(4-(3-(dimethylamino)pyrrolidin-1-yl)-2′-fluoro-5′-(morpholinomethyl)-[1,1′-biphenyl]-3-yl)-1-methyl-6-oxo-4-(trifluoromethyl)-1,6-dihydropyridine-3-carboxamide]: the dissociation constant Kd runs as follows: under setting [1], 2270 nM; under setting [2], 2270 nM.
`C[C@@H]1CN(c2ccc(-c3ccc(N4CCOCC4)cc3F)cc2NC(=O)c2c[nH]c(=O)cc2C(F)(F)F)C[C@H](C)N1C` [Example 118, N-(2′-fluoro-4′-morpholino-4-((3S,5R)-3,4,5-trimethylpiperazin-1-yl)-[1,1′-biphenyl]-3-yl)-6-oxo-4-(trifluoromethyl)-1,6-dihydropyridine-3-carboxamide]: the Kd turned out to be 5.6 nM. Moreover, the Kd under setting [2] was 6 nM. Besides, the residence time (SPR) came to 7.2 min.
Consider `COc1cc(C(F)(F)F)c(C(=O)Nc2cc(-c3cc(CN4CCC(C(C)C)C4)ccc3F)ccc2N2CCN(C)CC2)cn1` (stereo in doubt) [Example 53, (R)—N-(2′-fluoro-5′-((3-isopropylpyrrolidin-1-yl)methyl)-4-(4-methylpiperazin-1-yl)-[1,1′-biphenyl]-3-yl)-6-methoxy-4-(trifluoromethyl)nicotinamide], for which the Kd under setting [1] was greater than 200 nM and the Kd under setting [2] was greater than 200 nM.
Turning to `CC(=O)Nc1cc(C)c(C(=O)Nc2cc(-c3cc(CN4CCOCC4)ccc3F)ccc2N2CCN(C)CC2)cn1` [Example 106, 6-acetamido-N-(2′-fluoro-4-(4-methylpiperazin-1-yl)-5′-(morpholinomethyl)-[1,1′-biphenyl]-3-yl)-4-methylnicotinamide], the Kd is, setting by setting: under setting [1], 8.3 nM; under setting [2], 829 nM. For the same compound, the residence time (SPR) came out at 3.2 min.
Taken in the same sequence, the figures for `CN1CCN(c2ccc(-c3cc(OC(F)(F)F)ccc3F)cc2NC(=O)c2c[nH]c(=O)cc2C(F)(F)F)CC1` [Example 5, N-(2′-fluoro-4-(4-methylpiperazin-1-yl)-5′-(trifluoromethoxy)-[1,1′-biphenyl]-3-yl)-6-oxo-4-(trifluoromethyl)-1,6-dihydropyridine-3-carboxamide] were 29 nM, 29 nM and 1.88 min.
Taken in the same sequence, the figures for `CN1CCN(c2ccc(-c3cc(CNC4CC4)ccc3F)cc2NC(=O)c2c[nH]c(=O)cc2C(F)(F)F)CC1` [Example 17, N-(5′-((cyclopropylamino)methyl)-2′-fluoro-4-(4-methylpiperazin-1-yl)-[1,1′-biphenyl]-3-yl)-6-oxo-4-(trifluoromethyl)-1,6-dihydropyridine-3-carboxamide] were 14 nM, 14 nM and 4.25 min.
In the case of `CN1CCN(c2ccc(-c3cccc(CN4CCC(F)CC4)c3)cc2NC(=O)c2c[nH]c(=O)cc2C(F)(F)F)CC1` [reference compound], the τ (Table 4, effect of Fluoro-substitution) was 0.91 min. The Kd (Table 4, effect of Fluoro-substitution, read-out: KD (SPR)) was 30 nM.
Regarding `COC(=O)c1ccc(F)c(-c2ccc(N3CCN(C)CC3)c(NC(=O)c3c[nH]c(=O)cc3C(F)(F)F)c2)c1` [Example 14, methyl 6-fluoro-4′-(4-methylpiperazin-1-yl)-3′-(6-oxo-4-(trifluoromethyl)-1,6-dihydropyridine-3-carboxamido)-[1,1′-biphenyl]-3-carboxylate], the Kd under setting [1] stood at 26 nM and the Kd under setting [2] is 26 nM. In addition, the residence time (SPR) was 1.36 min.
As to `COc1cc(C(F)(F)F)c(C(=O)Nc2cc(-c3cc(CN4CCC(N5CCOCC5)CC4)ccc3F)ccc2N2CCN(C)CC2)cn1` [Example 52, N-(2′-fluoro-4-(4-methylpiperazin-1-yl)-5′-((4-morpholinopiperidin-1-yl)methyl)-[,1′-biphenyl]-3-yl)-6-methoxy-4-(trifluoromethyl)nicotinamide], the Kd was greater than 200 nM under setting [1] and greater than 200 nM under setting [2].
As for `CN1CCCN(c2ccc(-c3cc(CN4CCOCC4)ccc3F)cc2NC(=O)c2cn(C)c(=O)cc2C(F)(F)F)CC1` [Example 89, N-(2′-fluoro-4-(4-methyl-1,4-diazepan-1-yl)-5′-(morpholinomethyl)-[1,1′-biphenyl]-3-yl)-1-methyl-6-oxo-4-(trifluoromethyl)-1,6-dihydropyridine-3-carboxamide], the Kd runs as follows: under setting [1], 235 nM; under setting [2], 235 nM. In addition, the residence time (SPR) stood at 0.07 min.
`Cc1cc(C(=O)Nc2cc(-c3cc(CN4CCOCC4)ccc3F)ccc2N2CCN(CC(F)(F)F)CC2)cc(C)c1F` [Example 95, 4-fluoro-N-(2′-fluoro-5′-(morpholinomethyl)-4-(4-(2,2,2-trifluoroethyl)piperazin-1-yl)-[,1′-biphenyl]-3-yl)-3,5-dimethylbenzamide]: the Kd is greater than 200 nM under setting [1] and greater than 200 nM under setting [2].
Consider `Cc1cc(C(=O)Nc2cc(-c3cc(CN4CCOCC4)ccc3F)ccc2N2CCCN(C)CC2)cc(C)c1F` [Example 92, 4-fluoro-N-(2′-fluoro-4-(4-methyl-1,4-diazepan-1-yl)-5′-(morpholinomethyl)-[1,1′-biphenyl]-3-yl)-3,5-dimethylbenzamide], for which the Kd reads like this: under setting [1], 394 nM; under setting [2], 394 nM.
With `CN1CCN(c2ccc(-c3cccc(CN4CCOCC4)c3F)cc2NC(=O)c2c[nH]c(=O)cc2C(F)(F)F)CC1` [Example 23, N-(2′-fluoro-4-(4-methylpiperazin-1-yl)-3′-(morpholinomethyl)-[1,1′-biphenyl]-3-yl)-6-oxo-4-(trifluoromethyl)-1,6-dihydropyridine-3-carboxamide], the Kd came to 79 nM under setting [1] and 79 nM under setting [2]. For the same compound, the residence time (SPR) came to 0.56 min.
Turning to `O=C(Nc1cc(-c2cc(CN3CCOCC3)ccc2F)ccc1N1CCN(CC(F)(F)F)CC1)c1c[nH]c(=O)cc1C(F)(F)F` [Example 97, N-(2′-fluoro-5′-(morpholinomethyl)-4-(4-(2,2,2-trifluoroethyl)piperazin-1-yl)-[,1′-biphenyl]-3-yl)-6-oxo-4-(trifluoromethyl)-1,6-dihydropyridine-3-carboxamide], the Kd is, setting by setting: under setting [1], greater than 200 nM; under setting [2], greater than 200 nM.
As to `C[C@@H]1CN(c2ccc(-c3ccc(F)c(CNC4CCCCC4)c3F)cc2NC(=O)c2c[nH]c(=O)cc2C(F)(F)F)C[C@H](C)N1C` [Example 83, N-(3′-((cyclohexylamino)methyl)-2′,4′-difluoro-4-((3S,5R)-3,4,5-trimethylpiperazin-1-yl)-[1,1′-biphenyl]-3-yl)-6-oxo-4-(trifluoromethyl)-1,6-dihydropyridine-3-carboxamide], the Kd is, setting by setting: under setting [1], 10 nM; under setting [2], 10.3 nM. In addition, the residence time (SPR) was determined as 3.24 min.
Consider `CN1CCN(c2ccc(-c3cc(CN4CCOCC4)ccc3F)cc2NC(=O)c2c[nH]c(=O)cc2C(F)(F)F)CC1COC(=O)C(C)(C)C` (stereo not drawn) [Example 64, (4-(2′-fluoro-5′-(morpholinomethyl)-3-(6-oxo-4-(trifluoromethyl)-1,6-dihydropyridine-3-carboxamido)-[1,1′-biphenyl]-4-yl)-1-methylpiperazin-2-yl)methyl pivalate], for which the Kd is, setting by setting: under setting [1], greater than 200 nM; under setting [2], 102 nM.
In the case of `COc1cc(C(F)(F)F)c(C(=O)Nc2cc(-c3cc(CN4CCN(C(C)=O)CC4)ccc3F)ccc2N2CCN(C)CC2)cn1` [Example 54, N-(5′-((4-acetylpiperazin-1-yl)methyl)-2′-fluoro-4-(4-methylpiperazin-1-yl)-[1,1′-biphenyl]-3-yl)-6-methoxy-4-(trifluoromethyl)nicotinamide], the Kd by setting is: under setting [1], greater than 200 nM; under setting [2], greater than 200 nM.
With `C[C@@H]1CN(c2ccc(-c3ccc(C(N)=O)cc3F)cc2NC(=O)c2c[nH]c(=O)cc2C(F)(F)F)C[C@H](C)N1C` [Example 117, N-(4′-carbamoyl-2′-fluoro-4-((3S,5R)-3,4,5-trimethylpiperazin-1-yl)-[1,1′-biphenyl]-3-yl)-6-oxo-4-(trifluoromethyl)-1,6-dihydropyridine-3-carboxamide], the Kd reads like this: under setting [1], 1.7 nM; under setting [2], 1.6 nM. The residence time (SPR) is 7.9 min.
Taken in the same sequence, the figures for `C[C@@H]1CN(c2ccc(-c3ccc(C(N)=O)c(F)c3F)cc2NC(=O)c2c[nH]c(=O)cc2C(F)(F)F)C[C@H](C)N1C` [Example 123, N-(4′-carbamoyl-2′,3′-difluoro-4-((3S,5R)-3,4,5-trimethylpiperazin-1-yl)-[1,1′-biphenyl]-3-yl)-6-oxo-4-(trifluoromethyl)-1,6-dihydropyridine-3-carboxamide] were 3.6 nM, 4 nM and 4.2 min.
In the case of `C[C@@H]1CN(c2ccc(-c3c(F)ccc(C#N)c3F)cc2NC(=O)c2c[nH]c(=O)cc2C(F)(F)F)C[C@H](C)N1C` [Example 78, N-(3′-cyano-2′,6′-difluoro-4-((3S,5R)-3,4,5-trimethylpiperazin-1-yl)-[1,1′-biphenyl]-3-yl)-6-oxo-4-(trifluoromethyl)-1,6-dihydropyridine-3-carboxamide], the Kd was determined as 39 nM under setting [1] and 39 nM under setting [2]. For the same compound, where the note is “SPR”, the residence time was determined as 2.5 min.
